Assay results from patent US8012949B2, “Bisphosphonate compounds and methods with enhanced potency for multiple targets including FPPS, GGPPS, and DPPS” (The Board of Trustees of the University of Illinois, priority 2004, dated 2011).
Where two headings read alike, the source gives them in different places.

Experiments:
[1] = test system: MCF-7 (breast adenocarcinoma); test: MCF-7 cell growth inhibition (MTT), incl. FOH/GGOH rescue; assay type: cell-based, human; conditions: for rescue from growth inhibition by geranylgeraniol (GGOH): GGOH 20 μM
Text: (§1) Cell Growth Inhibition Assays. […] A broth microdilution method was used to determine IC50 values for growth inhibition by each bisphosphonate. […] NBPs were typically initially dissolved in H2O (0.01 M) while NNBPs were typically dissolved in DMSO (0.01 M).
GraphPad PRISM® version 4.0 software for windows (GraphPad Software Inc., San Diego, Calif., www.graphpad.com) was used to fit the data to a rectangular hyperbolic function: I=(ImaxC)/(IC50+C);
For the “rescue” experiments, stock solutions of FOH or GGOH were prepared (in ethanol) and the requisite amounts added to the incubation media to produce a fixed 20 μM concentration.

T. brucei FPPS = T. brucei FPPS inhibition; assay type: biochemical, Trypanosoma brucei; conditions: Table 9
Vγ2Vδ2 T cells = test: γδ T cell activation (TNF-α release and proliferation); assay type: cell-based, human
Description: γδ T Cell Assays. Vγ2Vδ2 T cell TNF-α release and proliferation were performed basically as described previously^1. Briefly, to measure bioactivity for Vγ2Vδ2 T cells, the CD4^+ JN.24, CD4^+ HF.2, CD8αα^+ 12G12, or the CD4^−8^− HD.108 Vγ2Vδ2 T cell clones were stimulated with phosphoantigens in the presence of CP.EBV (an EBV transformed B cell line) for CD4^+ clones or Va-2 (a transformed fibroblast) for CD8αα^+ and CD4^−8^− clones. CP.EBV and Va-2 were fixed with 0.05% glutaraldehyde (EM grade, Sigma, Mo.) for use as APCs. […] Curve fitting minima for each experiment (e.g. TNF-α release from JN.24 cells) were determined using the Global Fitting technique, as implemented in Prism 4.0. Curve fitting maxima were optimized for each individual compound without the use of any constraints.

human FPPS = target: T1, human FPPS (Homo sapiens, UniProt P14324); test: human FPPS enzyme inhibition; assay type: biochemical; conditions: for IC50: Table 9, read-out: H. sapiens FPPS IC50
T1 construct: made in house
T1 sequence (P14324 1-419): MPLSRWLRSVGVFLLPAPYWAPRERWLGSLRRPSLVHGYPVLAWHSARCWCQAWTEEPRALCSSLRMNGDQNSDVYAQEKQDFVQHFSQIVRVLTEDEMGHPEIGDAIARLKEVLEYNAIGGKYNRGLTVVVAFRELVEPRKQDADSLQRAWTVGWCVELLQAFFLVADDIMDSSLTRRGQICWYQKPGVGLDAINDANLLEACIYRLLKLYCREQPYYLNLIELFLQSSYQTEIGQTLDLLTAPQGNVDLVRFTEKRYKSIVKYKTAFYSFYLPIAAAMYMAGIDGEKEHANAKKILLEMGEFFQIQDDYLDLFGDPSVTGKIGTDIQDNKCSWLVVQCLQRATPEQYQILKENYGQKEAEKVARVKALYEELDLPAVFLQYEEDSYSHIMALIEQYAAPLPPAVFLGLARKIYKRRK
Text: (§2) To test our polypharmaceutical hypothesis, we expressed three enzymes: human FPPS, GGPPS and DPPS, and tested each for their inhibition by a series of bisphosphonates.

human DPPS = target: T2, human DPPS (Homo sapiens, UniProt Q5T2R2); test: human DPPS enzyme inhibition; assay type: biochemical
T2 construct: made in house
T2 sequence (Q5T2R2 1-415): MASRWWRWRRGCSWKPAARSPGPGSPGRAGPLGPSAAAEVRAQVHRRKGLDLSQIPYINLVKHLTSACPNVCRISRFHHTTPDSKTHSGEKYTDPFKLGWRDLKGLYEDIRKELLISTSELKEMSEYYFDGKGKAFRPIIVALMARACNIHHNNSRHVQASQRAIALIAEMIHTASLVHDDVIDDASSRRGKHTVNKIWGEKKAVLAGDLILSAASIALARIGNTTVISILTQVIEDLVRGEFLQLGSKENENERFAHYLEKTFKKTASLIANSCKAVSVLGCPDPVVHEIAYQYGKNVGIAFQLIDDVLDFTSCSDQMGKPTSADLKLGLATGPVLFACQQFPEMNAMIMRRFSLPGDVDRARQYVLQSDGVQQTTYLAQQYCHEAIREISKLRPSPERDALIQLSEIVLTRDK
T2 sequence (Q86YH6 1-399 partner): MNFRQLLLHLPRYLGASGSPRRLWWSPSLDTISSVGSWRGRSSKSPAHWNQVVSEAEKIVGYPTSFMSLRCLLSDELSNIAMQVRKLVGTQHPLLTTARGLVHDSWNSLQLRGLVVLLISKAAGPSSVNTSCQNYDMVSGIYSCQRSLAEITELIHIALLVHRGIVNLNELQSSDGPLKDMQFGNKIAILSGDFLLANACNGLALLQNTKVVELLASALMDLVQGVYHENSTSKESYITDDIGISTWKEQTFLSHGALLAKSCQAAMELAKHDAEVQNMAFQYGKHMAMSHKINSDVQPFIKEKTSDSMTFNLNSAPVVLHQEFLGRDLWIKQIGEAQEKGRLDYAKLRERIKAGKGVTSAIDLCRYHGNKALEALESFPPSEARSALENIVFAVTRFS
Text: as §2

[2] = test system: NCI-H460 (lung large cell); test: NCI-H460 cell growth inhibition (MTT); assay type: cell-based, human; conditions: Table 1, experimental
Text: as §1
(§3) GraphPad PRISM® version 4.0 software for windows (GraphPad Software Inc., San Diego, Calif., www.graphpad.com) was used to fit the data to a rectangular hyperbolic function: I=(ImaxC)/(IC50+C); […]

[3] = test system: SF-268 (central nervous system glioblastoma); test: SF-268 cell growth inhibition (MTT); assay type: cell-based, human; conditions: Table 1, experimental
Text: as §1, §3

[4] = Adsorption onto bone in vivo
Text: (§4) A potential drawback to the use of bisphosphonates in treating non-bone resorption diseases is expected to be that they would be rapidly adsorbed onto bone. […]

bone resorption = test: Bone resorption IC50
Text: as §4

SK-ES-1 sarcoma cells = test: SK-ES-1 sarcoma mouse xenograft; conditions: daily intraperitoneal 5 μg, athymic nude mice, SK-ES-1 xenograft
MDA-MB-231 cells = test: Matrigel invasion assay; assay type: cell-based, human
Text: Tumor cell invasiveness and in vivo results. […] .

[5] = Homo sapiens, MCF7, FIG. 2A, read-out: IC50, MCF-7 tumor cell growth inhibition

**Q.** With `C[S+](C)CC(O)(P(=O)(O)O)P(=O)(O)O` [BPH-527, (2-Hydroxy-2,2-bis-phosphono-ethyl)-dimethyl-sulfonium] as the molecule, how does the “MCF-7 Cell pIC50 (M)” value ([1]; Table 2, -log10(value, M)) read?
**A.** 3.36 M

**Q.** And the IC50 (T. brucei FPPS)?
**A.** 0.78 µM

**Q.** What about the “γδ T Cell Avg pED50 (M)” value (Vγ2Vδ2 T cells; Table 2, -log10(value, M)) of the same molecule?
**A.** 3.87 M

**Q.** What about the IC50 (human FPPS) of the same molecule?
**A.** 1030 nM

**Q.** Which “MCF-7 Cell pIC50 (M)” value ([1]; Table 2, -log10(value, M)) does the source give for `C[P+](C)(C)CC(O)(P(=O)([O-])O)P(=O)(O)O` (stereo not drawn) [BPH-536] here?
**A.** 3.24 M

**Q.** And the IC50 (T. brucei FPPS)?
**A.** 26.1 µM

**Q.** What about the “γδ T Cell Avg pED50 (M)” value (Vγ2Vδ2 T cells; Table 2, -log10(value, M)) of the same molecule?
**A.** 3.72 M

**Q.** And the IC50 (human FPPS)?
**A.** 12100 nM

**Q.** Which results are given for `C[S+](C)CCC(O)(P(=O)([O-])O)P(=O)(O)O` (stereo not drawn) [BPH-540]?
**A.** MCF-7 Cell pIC50 (M) ([1]; Table 2, -log10(value, M)): 2.68 M; IC50 (T. brucei FPPS): 11.3 µM; γδ T Cell Avg pED50 (M) (Vγ2Vδ2 T cells; Table 2, -log10(value, M)): 3.59 M; IC50 (human FPPS): 9000 nM

**Q.** Which results are given for `C[As+](C)(C)CC(O)(P(=O)([O-])O)P(=O)(O)O` (stereo not drawn) [BPH-560]?
**A.** MCF-7 Cell pIC50 (M) ([1]; Table 2, -log10(value, M)): 2.71 M; IC50 (T. brucei FPPS): 275 µM; γδ T Cell Avg pED50 (M) (Vγ2Vδ2 T cells; Table 2, -log10(value, M)): 3.37 M; IC50 (human FPPS): 1130 nM

**Q.** Which results are given for `O=P(O)(O)C(O)(Cc1cccc(-c2cccc(NS(=O)(=O)c3ccc4ccccc4c3)c2)c1)P(=O)(O)O` [BPH-675, 1-Hydroxy-2-[3′-(Naphthalene-2-sulfonylamino)-biphenyl-3-yl]ethylidene-1,1-bisphosphonic acid]?
**A.** IC50 ([1]; FIG. 2A, read-out: IC50, MCF-7 tumor cell growth inhibition): 5000 nM; rescue from growth inhibition by geranylgeraniol (GGOH) [1]: essentially fully rescued; MCF-7 pIC50 (M) ([1]; Table 1, experimental): 5.2 M; effect on DPPS (human DPPS): no effect; DPPS pKi (human DPPS; Table 1, experimental): 6.5; NCI-H460 pIC50 (M) [2]: 5.3 M; γδ T cell activation (Vγ2Vδ2 T cells): no effect at all; effect on FPPS (human FPPS): no effect; FPPS pKi (M) (human FPPS; Table 1, experimental): 5.9 M; SF-268 pIC50 (M) [3]: 5.2 M; adsorption onto bone in vivo [4]: only very weakly adsorbed

**Q.** With `N=C(N)NCC(O)(P(=O)(O)O)P(=O)(O)O` [BPH-678] as the molecule, how does the “MCF-7 pIC50 (M)” value ([1]; Table 1, experimental) read?
**A.** 4.7 M

**Q.** And the “MCF-7 Cell pIC50 (M)” value ([1]; Table 2, -log10(value, M))?
**A.** 5.37 M

**Q.** And the DPPS pKi (human DPPS; Table 1, experimental)?
**A.** 7.4

**Q.** And the IC50 (T. brucei FPPS)?
**A.** 25.6 µM

**Q.** And the “NCI-H460 pIC50 (M)” value [2]?
**A.** 4.7 M

**Q.** And the “γδ T Cell Avg pED50 (M)” value (Vγ2Vδ2 T cells; Table 2, -log10(value, M))?
**A.** 4.22 M

**Q.** What about the “FPPS pKi (M)” value (human FPPS; Table 1, experimental) of the same molecule?
**A.** 7.9 M

**Q.** And the IC50 (human FPPS)?
**A.** 1250 nM

**Q.** What about the “SF-268 pIC50 (M)” value [3] of the same molecule?
**A.** 4.6 M

**Q.** With `CCCCCCCCCCOc1ccc[n+](CC(P(=O)([O-])O)P(=O)(O)O)c1` (stereo not drawn) [BPH-715] as the molecule, how does the “rescue from growth inhibition by addition of farnesol” value ([1]; FOH fixed 20 μM) read?
**A.** no rescue

**Q.** And the “rescue from growth inhibition by geranylgeraniol (GGOH)” value [1]?
**A.** only a partial rescue

**Q.** And the IC50 [1, 5]?
**A.** ~50 nM

**Q.** What about the IC50 ([1]; Homo sapiens, MCF7, Table 1, experimental, read-out: MCF-7 pIC50 (converted)) of the same molecule?
**A.** 200 nM

**Q.** What about the IC50 ([1]; Homo sapiens, MCF7, Table 2, -log10(value, M), read-out: MCF-7 Cell pIC50 (converted)) of the same molecule?
**A.** 107 nM

**Q.** And the Ki (human DPPS; Table 1, experimental, read-out: DPPS_pKi (converted))?
**A.** 5.01 nM

**Q.** And the IC50 (bone resorption)?
**A.** ~800 nM

**Q.** And the IC50 ([2]; Homo sapiens, NCI-H460, read-out: NCI-H460 pIC50 (converted))?
**A.** 63.1 nM

**Q.** And the “reduction in tumor cell growth” value (SK-ES-1 sarcoma cells)?
**A.** even more pronounced (p=0.032 versus zoledronate)

**Q.** And the “γδ T cell activation” value (Vγ2Vδ2 T cells)?
**A.** potent activity

**Q.** What about the EC50 (Vγ2Vδ2 T cells; Homo sapiens, T-cell, Table 2, -log10(value, M), read-out: γδ T Cell Avg pED50 (converted)) of the same molecule?
**A.** 891 nM

**Q.** And the Ki (human FPPS; Table 1, experimental, read-out: FPPS pKi (converted))?
**A.** 50.1 nM

**Q.** What about the IC50 ([3]; Homo sapiens, SF-268, read-out: SF-268 pIC50 (converted)) of the same molecule?
**A.** 100 nM

**Q.** And the “adsorption onto bone in vivo” value [4]?
**A.** only very weakly adsorbed

**Q.** Which results are given for `CCCCCCCCCCCCOc1ccc[n+](CC(P(=O)(O)O)P(=O)(O)O)c1` [BPH-716]?
**A.** IC50 (MDA-MB-231 cells): ~0.03 µM; fold more inhibitory than zoledronate, Matrigel invasion (MDA-MB-231 cells; versus zoledronate): about 1000 fold; γδ T cell activation EC50, times more active than Phosphostim (Vγ2Vδ2 T cells; versus Phosphostim (bromohydrin of IPP)): ~2 ×; γδ T cell activation, times more active than the most potent conventional bisphosphonates (Vγ2Vδ2 T cells; versus most potent conventional bisphosphonates): ~100 ×

**Q.** What does the source list for `O=P(O)(O)C(O)(Cn1ccnc1)P(=O)(O)O` [zoledronate, reference compound]?
**A.** IC50 [1, 5]: ~15000 nM; IC50 (human DPPS): ~5 µM; effect on DPPS (human DPPS): inhibited; IC50 (bone resorption): ~70 nM; IC50 (MDA-MB-231 cells; Homo sapiens): ~40 µM; reduction in tumor cell growth (SK-ES-1 sarcoma cells): significant (p<0.01) reduction in tumor cell growth versus control
